# Source: US20100129418A1, “METHOD OF INDUCING NEGATIVE CHEMOTAXIS USING AN ELLAGITANNIN OR GALLOTANNIN” (priority 2008, published 2010)
# Tested on: neutrophils
# Assay: Chemorepulsion/chemoattraction transwell migration assay (Neuroprobe ChemoTx plates)
# Assay type: cell-based
# Details: Homo sapiens, Neutrophil, 1 h, 1.1 mg/ml ellagic acid, CR mode, 1 hour at 37° C., read-out: fold induction of chemorepulsion as compared to media
# Method: The chemorepulsive activity of ellagic acid was determined as follows: • 1. Prior to beginning the assay, the following were prepared: • a. 0.5% Fetal Calf Serum (FCS) in Iscove's Modified Dulbecco's Medium (IMDM) (Assay Medium) (Both from ATCC). • b. Migratory cells at a concentration of 2×10^7 cells/ml in Assay Medium. • c. The indicated dilutions of ellagic acid Assay Medium. • 2. The assay plates were Neuroprobe ChemoTx plates, part number 206-3 (3 um pore size) for neutrophils. • 3. The plates were removed from packaging, leaving the membrane behind. • 4. 31 μl of the following solutions were pipetted into each well: • a. For media controls and for chemorepulsion samples, Assay Medium was used. • b. For chemoattraction samples, appropriate dilution of ligand was used. • 5. The membrane was carefully placed onto the plate, starting at one side and then slowly lowering the other edge onto the plate. • 6. 29 μl of the following were pipetted onto the top of each circle: • a. For media controls and chemoattraction samples, Assay Medium was used. • b. For chemorepulsion samples, the appropriate dilution of ligand was used. • 7. […] The assay plates were processed by Guava Easy Cyte Plus (using via cell count for read out). • 1. […] The Guava Easy Cyte Plus was used to read the plate and quantify the number of migrated cells. […]
structure (smiles),measurement,value
"O=c1oc2c(O)c(O)cc3c(=O)oc4c(O)c(O)cc1c4c23 [ellagic acid, 2,3,7,8-tetrahydroxy-chromeno[5,4,3-cde]chromene-5,10-dione]",fold induction at 1100 µg/mL,~55
